The values below come from patent US9175003B2, “Substituted azoanthracene derivatives and intermediates for preparation thereof” (TransTech Pharma, LLC, priority 2009, dated 2015).

The structures appear in SMILES notation.

In general, EC50 refers to the midpoint of the concentration-response curve.

The target in this test is human GLP-1 receptor (Homo sapiens (Human), UniProt P43220). To be noted: read-out: Mean EC50; cAMP, HTRF detection, 30 min at 37° C., HEK-293 cells expressing cloned human GLP-1 receptor.
human GLP-1 receptor, sequence (P43220 24-463): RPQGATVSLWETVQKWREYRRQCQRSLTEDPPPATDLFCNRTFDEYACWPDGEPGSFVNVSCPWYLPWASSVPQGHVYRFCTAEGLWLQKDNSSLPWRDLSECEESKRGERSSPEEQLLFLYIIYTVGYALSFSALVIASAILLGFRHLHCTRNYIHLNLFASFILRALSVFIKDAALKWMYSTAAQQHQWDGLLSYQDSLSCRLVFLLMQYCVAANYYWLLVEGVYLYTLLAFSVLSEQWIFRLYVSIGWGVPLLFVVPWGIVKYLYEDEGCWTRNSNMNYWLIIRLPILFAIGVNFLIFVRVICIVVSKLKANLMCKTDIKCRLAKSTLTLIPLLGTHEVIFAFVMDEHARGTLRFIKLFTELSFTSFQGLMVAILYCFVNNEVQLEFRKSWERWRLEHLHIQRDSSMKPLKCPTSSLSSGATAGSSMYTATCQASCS

As to `Cc1nc(N)ccc1S(=O)(=O)N1Cc2cc3c(cc2C[C@H]1C(=O)N[C@@H](Cc1ccc(-c2ccc(C#N)cc2)cc1)C(=O)O)OC[C@H](c1ccc(OCc2ccc(Cl)c(Cl)c2)cc1)O3` [Example 141, (S)-2-({(3S,8S)-7-(6-Amino-2-methyl-pyridine-3-sulfonyl)-3-[4-(3,4-dichloro-benzyloxy)-phenyl]-2,3,6,7,8,9-hexahydro-[1,4]dioxino[2,3-g]isoquinoline-8-carbonyl}-amino)-3-(4′-cyano-biphenyl-4-yl)-propionic acid], the 50% effective concentration (EC50) was determined as 0.315 µM.

Consider `Cc1nc(NC(C)C)ccc1S(=O)(=O)N1Cc2cc3c(cc2C[C@H]1C(=O)N[C@@H](Cc1ccc(-c2ccc(C#N)cc2)cc1)C(=O)O)OC[C@H](c1ccc(OCc2ccc(Cl)c(Cl)c2)cc1)O3` [Example 142, (S)-3-(4′-Cyano-biphenyl-4-yl)-2-{[(3S,8S)-3-[4-(3,4-dichloro-benzyloxy)-phenyl]-7-(6-isopropylamino-2-methyl-pyridine-3-sulfonyl)-2,3,6,7,8,9-hexahydro-[1,4]dioxino[2,3-g]isoquinoline-8-carbonyl]-amino}-propionic acid], for which the 50% effective concentration (EC50) turned out to be 0.263 µM.

As for `Cc1nc(NCC2CC2)ccc1S(=O)(=O)N1Cc2cc3c(cc2C[C@H]1C(=O)N[C@@H](Cc1ccc(-c2ccc(C#N)cc2)cc1)C(=O)O)OC[C@H](c1ccc(OCc2ccc(Cl)c(Cl)c2)cc1)O3` [Example 144, (S)-3-(4′-Cyano-biphenyl-4-yl)-2-({(3S,8S)-7-[6-(cyclopropylmethyl-amino)-2-methyl-pyridine-3-sulfonyl]-3-[4-(3,4-dichloro-benzyloxy)-phenyl]-2,3,6,7,8,9-hexahydro-[1,4]dioxino[2,3-g]isoquinoline-8-carbonyl}-amino)-propionic acid], the EC50 worked out at 0.245 µM.

Regarding `CC[C@@H](c1ccccc1)N1Cc2cc3c(cc2C[C@H]1C(=O)N[C@@H](Cc1ccc(-c2ccnc(C)c2C)cc1)C(=O)O)OC[C@H](c1ccc(OCc2cccc(Cl)c2)cc1)O3` [Example 147, (S)-2-{[(3S,8S)-3-[4-(3-Chloro-benzyloxy)-phenyl]-7-((S)-1-phenyl-propyl)-2,3,6,7,8,9-hexahydro-[1,4]dioxino[2,3-g]isoquinoline-8-carbonyl]-amino}-3-[4-(2,3-dimethyl-pyridin-4-yl)-phenyl]-propionic acid], the concentration giving a half-maximal response (EC50) was determined as 0.005 µM.

`CC[C@@H](c1ccccc1)N1Cc2cc3c(cc2C[C@H]1C(=O)N[C@@H](Cc1ccc(-c2ccnc(C)c2C)cc1)C(=O)O)OC[C@H](c1ccc(OCc2ccc(Cl)cc2)cc1)O3` [Example 148, (S)-2-{[(3S,8S)-3-[4-(4-Chloro-benzyloxy)-phenyl]-7-((S)-1-phenyl-propyl)-2,3,6,7,8,9-hexahydro-[1,4]dioxino[2,3-g]isoquinoline-8-carbonyl]-amino}-3-[4-(2,3-dimethyl-pyridin-4-yl)-phenyl]-propionic acid]: the concentration giving a half-maximal response (EC50) is 0.013 µM.

As to `CC[C@@H](c1ccccc1)N1Cc2cc3c(cc2C[C@H]1C(=O)N[C@@H](Cc1ccc(-c2ccnc(C)c2C)cc1)C(=O)O)OC[C@H](c1ccc(OCc2ccccc2)cc1)O3` [Example 149, (S)-2-{[(3S,8S)-3-(4-Benzyloxy-phenyl)-7-((S)-1-phenyl-propyl)-2,3,6,7,8,9-hexahydro-[1,4]dioxino[2,3-g]isoquinoline-8-carbonyl]-amino}-3-[4-(2,3-dimethyl-pyridin-4-yl)-phenyl]-propionic acid], the concentration giving a half-maximal response (EC50) stood at 0.026 µM.

For `CC(=O)N1Cc2cc3c(cc2C[C@H]1C(=O)N[C@@H](Cc1ccc(-c2ccnc(C)c2C)cc1)C(=O)O)OC[C@H](c1ccc(OCc2ccc(Cl)c(Cl)c2)cc1)O3` [Example 150, (S)-2-({(3S,8S)-7-Acetyl-3-[4-(3,4-dichloro-benzyloxy)-phenyl]-2,3,6,7,8,9-hexahydro-[1,4]dioxino[2,3-g]isoquinoline-8-carbonyl}-amino)-3-[4-(2,3-dimethyl-pyridin-4-yl)-phenyl]-propionic acid], the half-maximal effective concentration (EC50) came to 0.372 µM.

Regarding `Cc1ccccc1C(=O)N1Cc2cc3c(cc2C[C@H]1C(=O)N[C@@H](Cc1ccc(-c2ccnc(C)c2C)cc1)C(=O)O)OC[C@H](c1ccc(OCc2ccc(Cl)c(Cl)c2)cc1)O3` [Example 151, (S)-2-{[(3S,8S)-3-[4-(3,4-Dichloro-benzyloxy)-phenyl]-7-(2-methyl-benzoyl)-2,3,6,7,8,9-hexahydro-[1,4]dioxino[2,3-g]isoquinoline-8-carbonyl]-amino}-3-[4-(2,3-dimethyl-pyridin-4-yl)-phenyl]-propionic acid], the EC50 was 0.018 µM.

`Cc1nccc(-c2ccc(C[C@H](NC(=O)[C@@H]3Cc4cc5c(cc4CN3C(=O)C(C)(C)C)O[C@@H](c3ccc(OCc4ccc(Cl)c(Cl)c4)cc3)CO5)C(=O)O)cc2)c1C` [Example 152, (S)-2-{[(3S,8S)-3-[4-(3,4-Dichloro-benzyloxy)-phenyl]-7-(2,2-dimethyl-propionyl)-2,3,6,7,8,9-hexahydro-[1,4]dioxino[2,3-g]isoquinoline-8-carbonyl]-amino}-3-[4-(2,3-dimethyl-pyridin-4-yl)-phenyl]-propionic acid]: the concentration giving a half-maximal response (EC50) amounted to 0.08 µM.

Consider `Cc1nccc(-c2ccc(C[C@H](NC(=O)[C@@H]3Cc4cc5c(cc4CN3C(=O)C(C)C)O[C@@H](c3ccc(OCc4ccc(Cl)c(Cl)c4)cc3)CO5)C(=O)O)cc2)c1C` [Example 153, (S)-2-({(3S,8S)-3-[4-(3,4-Dichloro-benzyloxy)-phenyl]-7-isobutyryl-2,3,6,7,8,9-hexahydro-[1,4]dioxino[2,3-g]isoquinoline-8-carbonyl}-amino)-3-[4-(2,3-dimethyl-pyridin-4-yl)-phenyl]-propionic acid], for which the concentration giving a half-maximal response (EC50) was determined as 0.327 µM.

For `Cc1nccc(-c2ccc(C[C@H](NC(=O)[C@@H]3Cc4cc5c(cc4CN3C(=O)C3CCCC3)O[C@@H](c3ccc(OCc4ccc(Cl)c(Cl)c4)cc3)CO5)C(=O)O)cc2)c1C` [Example 154, (S)-2-({(3S,8S)-7-Cyclopentanecarbonyl-3-[4-(3,4-dichloro-benzyloxy)-phenyl]-2,3,6,7,8,9-hexahydro-[1,4]dioxino[2,3-g]isoquinoline-8-carbonyl}-amino)-3-[4-(2,3-dimethyl-pyridin-4-yl)-phenyl]-propionic acid], the half-maximal effective concentration (EC50) is 0.108 µM.

`Cc1nccc(-c2ccc(C[C@H](NC(=O)[C@@H]3Cc4cc5c(cc4CN3C(=O)Cc3ccccc3)O[C@@H](c3ccc(OCc4ccc(Cl)c(Cl)c4)cc3)CO5)C(=O)O)cc2)c1C` [Example 155, (S)-2-({(3S,8S)-3-[4-(3,4-Dichloro-benzyloxy)-phenyl]-7-phenylacetyl-2,3,6,7,8,9-hexahydro-[1,4]dioxino[2,3-g]isoquinoline-8-carbonyl}-amino)-3-[4-(2,3-dimethyl-pyridin-4-yl)-phenyl]-propionic acid]: the concentration giving a half-maximal response (EC50) is 0.525 µM.

Take `Cc1cccc(C(=O)N2Cc3cc4c(cc3C[C@H]2C(=O)N[C@@H](Cc2ccc(-c3ccnc(C)c3C)cc2)C(=O)O)OC[C@H](c2ccc(OCc3ccc(Cl)c(Cl)c3)cc2)O4)c1` [Example 157, (S)-2-{[(3S,8S)-3-[4-(3,4-Dichloro-benzyloxy)-phenyl]-7-(3-methyl-benzoyl)-2,3,6,7,8,9-hexahydro-[1,4]dioxino[2,3-g]isoquinoline-8-carbonyl]-amino}-3-[4-(2,3-dimethyl-pyridin-4-yl)-phenyl]-propionic acid]: the EC50 is 0.034 µM.
